The text below walks through data of patent US20110318302A1, “Cancer Treatment” (priority 2009, published 2011).

The subject of this assay is human renal cancer cell line Caki-1. Put plainly: Caki-1 tumour mouse model, single and combination therapy (tumour volume). The conditions noted are these: single agent; s.c. Caki-1 tumours; F8-IL2 20 μg i.v. 3x every 3rd day; sorafenib or sunitinib 60 mg/kg p.o. 7 days; huIFNa2b/muIFNa1 10.000 IU/10.000 IU s.c. 3x; two treatment cycles (days 11-17, 37-43). In kind it is in vivo, BALB/c nude mice. As to the method: For the combination therapy, the human renal cancer cell line Caki-1 (clear cell carcinoma from kidney; ATCC) was cultured in DMEM containing 10% fetal bovine serum and 2 mM L-glutamine (all Invitrogen).
Female BALE/c nude mice were obtained from Charles River Laboratories. All experiments were performed according to Swiss regulations and under a project license granted by the Veterinäramt des Kantons Zürich.
Sorafenib tosylate (Nexavar, Bayer Schering) and sunitinib malate (Sutent, Pfizer) were obtained in the commercially available forms of 200 mg tablets and 50 mg capsules, respectively. The total tablet weight of sorafenib is 350 mg and an index of 1.75 was used to keep the molarity in terms of active compound. Sorafenib tablets were pulverized with mortar and pestle and kept from light in a desiccator. For in vivo administration, pulverized sorafenib was dissolved in a solution of CremophorEL:Ethanol:H2O (12.5%:12.5%:75%). The content of a sunitinib malate capsule was 167 mg and a correction factor of 3.3 was used for molarity adjustment. […]
Mice were monitored daily and tumor volumes were measured three times per week with a digital caliper using the following formula: volume=length×width^2×0.5. […] Tumor volumes are expressed as mean±SE (standard error). […]

As for `CNC(=O)c1cc(Oc2ccc(NC(=O)Nc3ccc(Cl)c(C(F)(F)F)c3)cc2)ccn1` [Sorafenib], the “tumour burden (tumour volume) versus PBS control” value is listed as “little or no effect on tumour burden”.
